Data on ten compounds can be found in ChEMBL document CHEMBL1201862, “PubChem BioAssay data set” (2004).

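Five compound concentrations were applied to cells in 96-well plates for 48 hours; endpoints were derived by simple linear interpolation of the resulting dose-response curve. Abbreviation: GI50, concentration required for 50% inhibition of growth.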 The source made the active and inactive calls. Cut-off read from the data, not from the text of the source: active = GI50 up to about 1.1 µM and inactive = higher.

Among the test systems are NCI-H226; UO-31; M14; HL-60; OVCAR-5; DU-145; K562; OVCAR-3; 786-0; SW-620; SK-MEL-5; A549; HOP-92; A498; CAKI-1; EKVX; MDA-MB-435; HT-29; SNB-19; SK-MEL-28.
What all share (experiment): DTP human tumour cell line panel, 48 h

Usually GI50 stands for the concentration at which growth is held to half of that of the control. With `C[Si](C)(C)C#Cc1cc(-c2nc3ccccc3s2)ccc1N`, the GI50 in the assay on NCI-H226 is 14.4 µM (inactive); in the assay on UO-31 it was 13.4 µM (inactive); with M14, 16.5 µM (inactive); in the assay with HL-60, 23.3 µM (inactive); with OVCAR-5, 16.5 µM (inactive); with DU-145, 26.6 µM (inactive). In addition, the GI50 in the assay on K562 was 27.8 µM (inactive); in the assay with OVCAR-3, 17.3 µM (inactive); with 786-0, 17 µM (inactive); in the assay on SW-620, 18.1 µM (inactive); in the assay with SK-MEL-5 it was 15.5 µM (inactive); in the assay on A549, 19.4 µM (inactive). For the same compound, the GI50 in the assay with HOP-92 was 11.5 µM (inactive); in the assay on A498, 19.9 µM (inactive); in the assay on CAKI-1 it was 14.2 µM (inactive); in the assay with EKVX it was 12 µM (inactive); in the assay with MDA-MB-435, 18.3 µM (inactive); in the assay on HT-29, 20.1 µM (inactive). The GI50 in the assay with SNB-19 was 18.7 µM (inactive).

Regarding `OC(c1cc(C(F)(F)F)nc2c(Cl)cc(Cl)cc12)C1CCCCN1` (centres undefined), the GI50 was 16.8 µM (inactive) in the assay on NCI-H226; 0.906 µM (active) in the assay on UO-31; > 25.1 µM (inactive) in the assay on M14; 5.82 µM (inactive) with HL-60; > 35 µM (inactive) in the assay with OVCAR-5; 7.01 µM (inactive) in the assay with DU-145. For the same compound, the GI50 in the assay on K562 was 5.22 µM (inactive); with OVCAR-3, 3.53 µM (inactive); in the assay on 786-0, 13.3 µM (inactive); in the assay with SK-MEL-28, 15.3 µM (inactive); in the assay with SW-620, 5.89 µM (inactive); with SK-MEL-5, 8.65 µM (inactive). In addition, the GI50 in the assay with A549 was 20.5 µM (inactive); with HOP-92, 7.26 µM (inactive); with A498 it was > 36.1 µM (inactive); with CAKI-1, 8.97 µM (inactive); in the assay with EKVX it was > 100 µM (inactive); with MDA-MB-435 it was 5.61 µM (inactive). Also, in the assay on SNB-19, the GI50 is > 36.5 µM (inactive).

With `C[C@]12CC[C@@H]3c4ccc(O)cc4CC[C@H]3[C@@H]1C/C(=C\c1ccncc1)C2=O`, the GI50 with NCI-H226 is 19.3 µM (inactive); in the assay with UO-31 it was 35.6 µM (inactive); in the assay with M14 it was 20.4 µM (inactive); with HL-60, 10.6 µM (inactive); in the assay on OVCAR-5, 27.5 µM (inactive); with DU-145, 12.1 µM (inactive). In addition, the GI50 in the assay on K562 is 8.61 µM (inactive); in the assay on OVCAR-3 it was 14.8 µM (inactive); in the assay on SK-MEL-28 it was 64.3 µM (inactive); with SW-620, 27.5 µM (inactive); in the assay with SK-MEL-5, 8.04 µM (inactive); in the assay with A549, 19.1 µM (inactive). Moreover, the GI50 was 23.1 µM (inactive) in the assay with HOP-92; 34 µM (inactive) with A498; 33.2 µM (inactive) in the assay on CAKI-1; 28.1 µM (inactive) with EKVX; 4.46 µM (inactive) in the assay on MDA-MB-435; 19.3 µM (inactive) in the assay on HT-29. Moreover, in the assay with SNB-19, the GI50 was 38.5 µM (inactive).

For `Nc1nc(N)c2cc(Sc3ccc4nc(N)nc(N)c4c3)ccc2n1`, the GI50 was > 29.2 µM (inactive) in the assay with NCI-H226; > 100 µM (inactive) in the assay with UO-31; > 100 µM (inactive) with M14; 0.0533 µM (active) in the assay on HL-60; > 100 µM (inactive) in the assay with OVCAR-5; 1.13 µM (inactive) in the assay on DU-145. Also, the GI50 with K562 was < 0.01 µM (active); in the assay with OVCAR-3, > 31.6 µM (inactive); in the assay on SK-MEL-28, > 100 µM (inactive); with A549 it was < 0.01 µM (active); with HOP-92 it was > 100 µM (inactive); in the assay with A498, > 100 µM (inactive). The GI50 with CAKI-1 was > 100 µM (inactive); with EKVX it was > 100 µM (inactive); in the assay on MDA-MB-435, 0.0522 µM (active); in the assay with HT-29, 0.0933 µM (active); in the assay with SNB-19, 4.23 µM (inactive).

Consider `Cc1cccc(/C=N\NC(=S)N2CCCCC2)n1`, for which the GI50 in the assay with NCI-H226 is 0.184 µM (active); with UO-31, 0.216 µM (active); in the assay on M14 it was < 0.01 µM (active); in the assay on HL-60 it was 0.0112 µM (active); with OVCAR-5, < 0.01 µM (active); with DU-145, 0.362 µM (active). Moreover, the GI50 in the assay with K562 was < 0.01 µM (active); in the assay on OVCAR-3, < 0.01 µM (active); in the assay on 786-0, 0.027 µM (active); with SK-MEL-28, 0.532 µM (active); with SW-620, 0.334 µM (active); in the assay with SK-MEL-5, 0.0229 µM (active). For the same compound, the 50% growth inhibitory concentration (GI50) in the assay on A549 is 0.158 µM (active); in the assay with HOP-92 it was 0.474 µM (active); in the assay with A498, 0.0241 µM (active); with CAKI-1 it was 0.126 µM (active); in the assay on EKVX, 0.673 µM (active); with MDA-MB-435, 0.56 µM (active). Besides, the GI50 in the assay with HT-29 was < 0.01 µM (active); in the assay with SNB-19, 0.665 µM (active).

As for `CC(=O)OCC1OC(N2C(=O)NC(=O)C3C=C4CCCCC4=CC32)C(OC(C)=O)C1OC(C)=O` (centres undefined), the GI50 with UO-31, in the assay on M14, in the assay on HL-60, in the assay on OVCAR-5, in the assay on DU-145 and in the assay with K562 was > 100 µM (inactive) in each case. Further, the GI50 with OVCAR-3, in the assay with SK-MEL-28, in the assay on SW-620, in the assay on SK-MEL-5, in the assay on A549 and in the assay with HOP-92 was > 100 µM (inactive) each time. The GI50 with A498, in the assay on CAKI-1, in the assay on EKVX, with MDA-MB-435 and in the assay with SNB-19 was > 100 µM (inactive) each time.

`O=C1CC(=O)c2c(O)cc(O)c(c2O)-c2c(ccc(O)c2O)C2=CC(=O)c3c(O)cc(O)c(c3O2)-c2c1ccc(O)c2O.O=C1CC2(O)Oc3c1c(O)cc(O)c3-c1c(ccc(O)c1O)-c1cc(=O)c3c(O)cc(O)c(c3o1)-c1c2ccc(O)c1O`: the GI50 in the assay on NCI-H226, in the assay with UO-31, with M14, with HL-60, with OVCAR-5 and in the assay on DU-145 was > 50 µM (inactive) throughout. The GI50 in the assay on K562, in the assay with OVCAR-3, in the assay with SK-MEL-28, in the assay on SW-620, in the assay on SK-MEL-5 and with A549 was > 50 µM (inactive) in each case. Further, the GI50 in the assay on HOP-92, with A498, with CAKI-1, in the assay with EKVX, with MDA-MB-435 and in the assay with HT-29 was > 50 µM (inactive) each time. Moreover, in the assay on SNB-19, the GI50 is > 50 µM (inactive).

For `COC12COC(=O)C1C(c1ccc3c(c1)OCO3)c1cc3c(cc1O2)OCO3` (centres undefined), the GI50 in the assay with NCI-H226 is 34.3 µM (inactive); in the assay with UO-31 it was 28.4 µM (inactive); with M14 it was 13 µM (inactive); in the assay with HL-60, 5.28 µM (inactive); with OVCAR-5, > 73.1 µM (inactive); with DU-145 it was 25 µM (inactive). Also, the GI50 in the assay with K562 was 4.21 µM (inactive); in the assay on OVCAR-3 it was 9.62 µM (inactive); in the assay on 786-0 it was 25.1 µM (inactive); in the assay with SK-MEL-28, 32.8 µM (inactive); in the assay with SW-620 it was 8.49 µM (inactive); with SK-MEL-5, 11.2 µM (inactive). The GI50 with A549 is 16.7 µM (inactive); with HOP-92, 37.8 µM (inactive); in the assay on A498, 29.2 µM (inactive); in the assay with CAKI-1 it was > 73.8 µM (inactive); in the assay on EKVX, 37.1 µM (inactive); in the assay on MDA-MB-435 it was 2.72 µM (inactive). Further, the GI50 in the assay on HT-29 is 6.44 µM (inactive); in the assay on SNB-19 it was 54.1 µM (inactive).

For the compound `CC(C)(C)[Si](C)(C)OCC1OC(n2cnc3c(NC(=O)c4ccccc4)ncnc32)CC1O` (centres undefined), the GI50 in the assay with NCI-H226 was 24.5 µM (inactive); in the assay with UO-31 it was 1.47 µM (inactive); in the assay on M14 it was 19.9 µM (inactive); in the assay with HL-60, 28 µM (inactive); with OVCAR-5, 36.7 µM (inactive); with DU-145, 64 µM (inactive). In addition, the GI50 is 23.4 µM (inactive) in the assay with K562; 39.9 µM (inactive) with OVCAR-3; 21.4 µM (inactive) in the assay on 786-0; 36.7 µM (inactive) in the assay on SK-MEL-28; 40.9 µM (inactive) with SW-620; 17.5 µM (inactive) in the assay with SK-MEL-5. Besides, the GI50 was 42.7 µM (inactive) in the assay on A549; 23.5 µM (inactive) in the assay with HOP-92; 32.9 µM (inactive) with A498; 49 µM (inactive) with CAKI-1; 40.3 µM (inactive) with EKVX; 22.1 µM (inactive) with MDA-MB-435. Besides, the GI50 was 36.5 µM (inactive) with HT-29 and 28.6 µM (inactive) in the assay with SNB-19.

For `O=C(O)C1(C(O)c2ccccc2)SCCCS1` (centres undefined), the GI50 in the assay with NCI-H226, in the assay on UO-31, in the assay with M14, in the assay with HL-60, in the assay with OVCAR-5 and with DU-145 was > 10 µM (inactive) in each case. The GI50 in the assay on K562, in the assay with OVCAR-3, with 786-0, in the assay with SK-MEL-28, in the assay with SW-620 and in the assay with SK-MEL-5 was > 10 µM (inactive) in each case. Besides, the GI50 in the assay with A549, with HOP-92, in the assay on A498, in the assay with EKVX, in the assay with MDA-MB-435 and with HT-29 was > 10 µM (inactive) throughout. Also, in the assay on SNB-19, the GI50 is > 10 µM (inactive).
